Measurements taken from patent US20110313672A1, “CELLULAR ANTIOXIDANT ACTIVITY (CAA) ASSAY” (CORNELL UNIVERSITY, priority 2007, published 2011).
Where two headings read alike, the source gives them in different places.

Experiments:
HepG2 cells [1] = test: Cellular antioxidant activity (CAA) assay: inhibition of peroxyl radical-induced DCFH oxidation; format: cell-based, human; conditions: for EC50: Homo sapiens; for cellular antioxidant activity, result in words: no PBS wash protocol
Description: Cells (e.g., human hepatocellular carcinoma cells; HepG2) are seeded at a density of e.g., 6×10^4/well on a 96-well microplate in 100 μL growth medium/well. It is preferred that only the inside wells of e.g., a 96-well microplate are used for the assay, since the outer wells have increased variation compared to that of the inner wells. Twenty-four hours after seeding the growth medium is removed and the wells are washed with PBS. Triplicate wells are treated for 1 h with 100 μL of a test compound (e.g., pure phytochemical compounds or fruit extracts) plus 25 μM DCFH-DA dissolved in treatment medium.
600 μM ABAP is then applied to the cells in 100 μL HBSS and the 96-well microplate is placed into a plate reader e.g., Fluoroskan Ascent FL plate-reader (ThermoLabsystems, Franklin, Mass.) at 37° C. Emission at 538 nm is measured with excitation at 485 nm, for example every 5 min for 1 h. Each plate should include triplicate control and blank wells: control wells contain cells treated with DCFH-DA and oxidant; blank wells contain cells treated with dye and HBSS without oxidant.
A test compound is assayed in multiple wells of e.g., a 96-well cell culture plate. Some wells are washed with 100 μL of phosphate-buffered saline (PBS) prior to the addition of ABAP, while other wells were not washed prior to the addition of ABAP. It was noted that the measured antioxidant activity of some fruit extracts (e.g., blueberries) was different when a PBS wash was used compared to when there was no PBS wash (see Table 2; FIGS. 3 and 4). This is likely due to non-specific binding of certain antioxidant compounds to the outer membrane, or a reduced uptake of the compound, thus the ratio of antioxidant activity values obtained with a PBS wash compared to a non-PBS wash indicates the bioavailability of the test compound. In order to accurately measure the intracellular antioxidant activity of a test compound, a PBS wash prior to the addition of a peroxyl initiator (e.g, ABAP) is necessary. The values obtained for cells assayed using a PBS wash should be compared to values obtained for the same cells assayed without a PBS wash. One of skill in the art can plan and perform experiments on a test compound in the presence and absence of a PBS wash, in order to accurately assess the intracellular antioxidant capacity of the test compound.
After blank subtraction from the fluorescence readings, the area under the curve of fluorescence versus time is integrated to calculate the cellular antioxidant activity (CAA) value at each concentration of pure phytochemical compound or fruit extract as follows:
where ∫SA is the integrated area under the sample fluorescence versus time curve and ∫CA is the integrated area from the control curve. The median effective dose (EC50) was determined for the pure phytochemical compounds and fruit extracts from the median effect plot of log (fa/fu) vs. log (dose), where fa is the fraction affected and fu is the fraction unaffected by the treatment. To quantify intra-experimental variation, the EC50 values are stated as mean±SD for triplicate sets of data obtained from the same experiment. Inter-experimental variation is obtained for some representative pure phytochemical compounds and fruit extracts by averaging the fluorescence values from triplicate wells in each trial to obtain one EC50 value per experiment and calculating the mean±SD for at least four trials. In each experiment, a standard is used, for example quecetin, thus permitting the cellular antioxidant activities for a test compounds to be expressed as μmol quercetin equivalents (QE)/100 μmol compound. Fruit extracts are expressed as μmol QE/100 g fruit. In order to compare the antioxidant quality of different fruits, cellular antioxidant activity (CAA) is also calculated as μmol QE/100 μmol total phenolics.
Human hepatocellular carcinoma HepG2 cells were seeded at a density of 6×10^4/well on a 96-well microplate in 100 μL growth medium/well. […]

HepG2 cells [2] = test: in vitro
Description: (§1) Briefly, HepG2 cells are seeded at 4×10^4/well on a 96-well plate in 100 μL growth medium and incubated for 24 h at 37° C. The medium is removed and the cells are washed with PBS. Treatments of fruit extracts or antioxidant compounds in 100 μL treatment medium (Williams' Medium E supplemented with 2 mM L-glutamine and 10 mM Hepes) are applied to the cells and the plates are incubated at 37° C. for 24 h. The treatment medium is removed and the cells are washed with PBS. A volume of 50 μL/well methylene blue staining solution (98% HBSS, 0.67% glutaraldehyde, 0.6% methylene blue) is applied to each well and the plate is incubated at 37° C. for 1 h.
(§2) Excess dye is removed by immersing the plate in fresh deionized water until the water appears clear. The excess water should be tapped out of the wells and the plate allowed to air-dry briefly before addition of 100 μL elution solution (49% PBS, 50% ethanol, 1% acetic acid) to each well. The microplate is then placed on a bench-top shaker for 20 minutes to allow uniform elution. The absorbance is read at 570 nm with blank subtraction using, for example a MRX II DYNEX spectrophotometer (DYNEX Inc., Chantilly, Va.). Concentrations of pure compounds or fruit extracts that decrease the absorbance by more than 10% when compared to the control are considered to be cytotoxic.
(§3) Cytotoxicity was measured using the method of Oliver et al. (31) with modifications by our laboratory (32). […] The medium was removed and the cells were washed with PBS. Treatments of fruit extracts or antioxidant compounds in 100 μL treatment medium (Williams' Medium E supplemented with 2 mM L-glutamine and 10 mM Hepes) were applied to the cells and the plates were incubated at 37° C. for 24 h. The treatment medium was removed and the cells were washed with PBS. A volume of 50 μL/well methylene blue staining solution (98% HBSS, 0.67% glutaraldehyde, 0.6% methylene blue) was applied to each well and the plate was incubated at 37° C. for 1 h. The dye was removed and the plate was immersed in fresh deionized water three times, or until the water was clear. The water was tapped out of the wells and the plate was allowed to air-dry briefly before 100 μL elution solution (49% PBS, 50% ethanol, 1% acetic acid) was added to each well. The microplate was placed on a bench-top shaker for 20 minutes to allow uniform elution. The absorbance was read at 570 nm with blank subtraction using the MRX II DYNEX spectrophotometer (DYNEX Inc., Chantilly, Va.). Concentrations of pure compounds or fruit extracts that decreased the absorbance by more than 10% when compared to the control were considered to be cytotoxic.
(§4) The median cytotoxic concentration (CC50) was calculated for each fruit.
(§5) Briefly, HepG2 cells were seeded at 4×10^4/well on a 96-well plate in 100 μL growth medium and incubated for 24 h at 37° C. The medium was removed, and the cells were washed with PBS. Flavonoids in 100 μL growth medium were applied to the cells, and the plates were incubated at 37° C. for 24 h. The medium was removed, and the cells were washed with PBS before a volume of 50 μL/well methylene blue staining solution (98% HBSS, 0.67% glutaraldehyde, 0.6% methylene blue) was applied to each well, and the plate was incubated at 37° C. for 1 h. The dye was removed, and the plate was immersed in fresh deionized water until the water was clear. The water was tapped out of the wells, and the plate was allowed to air-dry briefly before 100 μL of elution solution (49% PBS, 50% ethanol, 1% acetic acid) was added to each well. The microplate was placed on a benchtop shaker for 20 min to allow uniform
(§6) elution. The absorbance was read at 570 nm with blank subtraction using the MRX II Dynex spectrophotometer (Dynex Inc., Chantilly, Va.). The median cytotoxic concentration (CC50) was calculated for each flavonoid.

in vitro = conditions: human
Description: as §1, §2, §3, §4, §5, §6

[3] = HepG2, Example 1, Table 1, PBS wash, pure phytochemical compounds, mean ± SD, n=3, read-out: EC50 for inhibition of peroxyl radical-induced DCFH oxidation
[4] = HepG2, Example 1, Table 1, no PBS wash, pure phytochemical compounds, mean ± SD, n=3, read-out: EC50 for inhibition of peroxyl radical-induced DCFH oxidation

| Structure (SMILES) | CAA (HepG2 cells [1]; Example 3, Table 7, no PBS wash) | EC50 (HepG2 cells [1]; [3]) [µM] | EC50 (HepG2 cells [1]; [4]) [µM] | EC50 (HepG2 cells [1]; HepG2, Example 3, Table 7, PBS wash, flavonoids, mean ± SD, n=3, read-out: EC50) [µM] | EC50 (HepG2 cells [1]; HepG2, Example 3, Table 7, no PBS wash, flavonoids, mean ± SD, n=3, read-out: EC50) [µM] | EC50 (HepG2 cells [1]; HepG2, Example 3, text, no PBS wash, read-out: EC50) [µM] | Cytotoxicity (cytotoxic concentration) (HepG2 cells [2]; human, 24 h) [µM] | CC50 at 24 h (in vitro) [mM] | cellular antioxidant activity, result in words (HepG2 cells [1]) | Cytotoxicity (cytotoxic concentration) (HepG2 cells [2]; Example 1, dose at which the cell number is reduced by more than 10% after 24 h treatment) [µM] |
| --- | --- | --- | --- | --- | --- | --- | --- | --- | --- | --- |
| Oc1cc(O)c2c(c1)O[C@H](c1ccc(O)c(O)c1)[C@H](O)C2 [Epicatechin, (−)-epicatechin] | 1.9 ± 0.2 μmol of QE/100 μmol | > 600 | > 200 | > 800 | 457 ± 47 | 457 ± 47 | >500 | > 1 |  |  |
| COc1cc(/C=C/C(=O)O)ccc1O [Ferulic acid, ferulic acid] |  | > 500 | > 250 |  |  |  | >500 |  | low activity within the doses tested |  |
| Oc1ccc(C=Cc2cc(O)cc(O)c2)cc1 [Resveratrol, resveratrol] |  | > 40 | > 40 |  |  |  |  |  | activity only at doses much higher than their cytotoxic concentrations | 40 |
